System: HCT116
Assay: Cell colony formation assay
Type: cell-based
Conditions: 72 hours with drug, colonies counted after 7 days
Experimental: This example provides directions for growing cells and testing compounds of the invention for their effect on the growth of the cells. All cells were purchased from DCTDC Tumor Repository, NCI, NIH.
The cells were incubated in a CO2 incubator at 37° C. for 5 hours for attachment to the bottom of Petri dishes. Drugs were made fresh in medium at ten times the final concentration, and then 0.3 ml of this stock solution was added to the 2.7 ml of medium in the dish. The cells were then incubated with drugs for 72 hours at 37° C. At the end of the incubation the drug-containing media were decanted, the dishes were rinsed with 4 ml of Hank's Balance Salt Solution (HBSS), 5 ml of fresh medium was added, and the dishes were returned to the incubator for colony formation. The cell colonies were counted using colony counter after incubation for 7 days for HCT116 cells and PC-3 cells and 8 days for VM46 cells, respectively. Cell survival (%) was calculated, as shown in Table I below for HCT 116 cells.

Structure (SMILES) | In Vitro Efficacy: Survival (%) of HCT116 (100 nM) [%] | In Vitro Efficacy: Survival (%) of HCT116 (1000 nM) [%] | In Vitro Efficacy: Survival (%) of HCT116 (10 nM) [%]
COc1cc(C2c3cc4c(cc3C(OC(=O)c3ccc5c(c3)C(=O)c3ccccc3C5=O)C3COC(=O)C23)OCO4)cc(OC)c1OC (stereo not shown) [Compound 000121, Podophyllotoxin-4-O-ester of anthraquinone-2-carboxylic acid] | 94.03 | 0 | 
COc1cc([C@@H]2c3cc4c(cc3[C@H](OC(=O)c3cccc(NC(=O)CCl)c3)[C@H]3COC(=O)[C@H]23)OCO4)cc(OC)c1OC [Compound 000124, Podophyllotoxin-4-O-ester of 3-chloroacetamidobenzoic acid] | 0 | 0 | 83.22
COc1cc(C2c3cc4c(cc3C(OC(=O)c3cc(-c5ccccc5)nc5ccccc35)C3COC(=O)C23)OCO4)cc(OC)c1OC (stereo not shown) [Compound 000125, Podophyllotoxin-4-O-ester of 2-phenyl-4-quinolinecarboxylic acid] | 90.34 | 0 | 
COc1cc(C2c3cc4c(cc3C(OC(=O)CCC(=O)O)C3COC(=O)C23)OCO4)cc(OC)c1OC (stereo not shown) [Compound 000201, Podophyllotoxin-4-O-ester of hemisuccinic acid] | 93.24 | 0 | 
COc1cc(C2c3cc4c(cc3C(OC(=O)c3ccc([N+](=O)[O-])o3)C3COC(=O)C23)OCO4)cc(OC)c1OC (stereo not shown) [Compound 000202, Podophyllotoxin-4-O-ester of 5-nitro-2-furoic acid] | 0 | 0 | 81.68
COc1cc([C@@H]2c3cc4c(cc3[C@H](OC(=O)[C@@H]3CCCN3C(=O)OC(C)(C)C)[C@H]3COC(=O)[C@H]23)OCO4)cc(OC)c1OC [Compound 000203, Podophyllotoxin-4-O-ester of N-(tert-Butoxycarbonyl)-L-proline] | 89.76 | 0 | 
COc1cc([C@@H]2c3cc4c(cc3[C@H](OC(=O)c3cc(=O)c5ccccc5o3)[C@H]3COC(=O)[C@H]23)OCO4)cc(OC)c1OC [Compound 000215, Podophyllotoxin-4-O-ester of chromone-2-carboxylic acid] | 0 | 0 | 92.46
COc1cc(C2c3cc4c(cc3C(OC(=O)COC3CC(C)CCC3C(C)C)C3COC(=O)C23)OCO4)cc(OC)c1OC (stereo not drawn) [Compound 000218, Podophyllotoxin-4-O-ester of (+)-menthoxyethanoic acid] | 44.28 | 0 | 
COc1cc([C@@H]2c3cc4c(cc3[C@H](OC(=O)C(C)ON=C3c5cc([N+](=O)[O-])cc([N+](=O)[O-])c5-c5c3cc([N+](=O)[O-])cc5[N+](=O)[O-])[C@H]3COC(=O)[C@H]23)OCO4)cc(OC)c1OC (stereo partly drawn) [Compound 000222, Podophyllotoxin-4-O-ester of (+)-2-(2,4,5,7-tetranitro-9-fluorenylideaminooxy)-propionic acid] | 1.46 | 0 | 100
COc1cc([C@@H]2c3cc4c(cc3[C@H](OC(=O)C3Cc5c([nH]c6ccccc56)CN3C(=O)OC(C)(C)C)[C@H]3COC(=O)[C@H]23)OCO4)cc(OC)c1OC (stereo partly drawn) [Compound 000301, Podophyllotoxin-4-O-ester of N—BOC-1,2,3,4-Tetrahydro-β-carboline-3-carboxylic acid] | 84.08 | 0 | 
COc1cc(C2c3cc4c(cc3C(OC(=O)C3Cc5ccccc5CN3C(=O)OC(C)(C)C)C3COC(=O)C23)OCO4)cc(OC)c1OC (stereo not shown) [Compound 000302, Podophyllotoxin-4-O-ester of N—BOC-1,2,3,4-Tetrahydroisoquinoline-3-carboxylic acid] | 100 | 0 | 
COc1cc(C2c3cc4c(cc3C(OC(=O)C(NC(=O)OC(C)(C)C)C(C)c3ccccc3)C3COC(=O)C23)OCO4)cc(OC)c1OC [Compound 000307, Podophyllotoxin-4-O-ester of N—BOC-erythro-D-β-Methylphenylalanine] | 93.49 | 0 | 
COc1cc([C@@H]2c3cc4c(cc3[C@H](OC(=O)COc3ccc(Cl)cc3C)[C@H]3COC(=O)[C@H]23)OCO4)cc(OC)c1OC [Compound 000317, Podophyllotoxin-4-O-ester of 4-chloro-2-methylphenoxyacetic acid] | 0 | 0 | 99.49
COc1cc([C@@H]2c3cc4c(cc3[C@H](OC(=O)COc3ccc(Br)cc3)[C@H]3COC(=O)[C@H]23)OCO4)cc(OC)c1OC [Compound 000320, Podophyllotoxin-4-O-ester of 4-bromophenoxyacetic acid] | 0 | 0 | 100
COc1cc(C2c3cc4c(cc3C(OC(=O)COc3ccc(C=O)cc3)C3COC(=O)C23)OCO4)cc(OC)c1OC (stereo not shown) [Compound 000323, Podophyllotoxin-4-O-ester of 4-formylphenoxyacetic acid] | 0 | 0 | 90.86
COc1cc([C@@H]2c3cc4c(cc3[C@H](OC(=O)COc3ccc(Cl)cc3Cl)[C@H]3COC(=O)[C@H]23)OCO4)cc(OC)c1OC [Compound 000324, Podophyllotoxin-4-O-ester of 2,4-dichlorophenoxyacetic acid] | 0 | 0 | 100
COc1ccc(OCC(=O)OC2c3cc4c(cc3C(c3cc(OC)c(OC)c(OC)c3)C3C(=O)OCC23)OCO4)cc1 (stereo not shown) [Compound 000329, Podophyllotoxin-4-O-ester of 4-methoxyphenoxyacetic acid] | 0 | 0 | 100
COc1cc([C@@H]2c3cc4c(cc3[C@H](OC(=O)c3cncc(C(=O)O[C@H]5c6cc7c(cc6[C@@H](c6cc(OC)c(OC)c(OC)c6)[C@H]6C(=O)OC[C@@H]65)OCO7)c3)[C@H]3COC(=O)[C@H]23)OCO4)cc(OC)c1OC [Compound 000330, Bis(Podophyllotoxin-4-O-ester) of 3,5-Pyridinedicarboxylic acid] | 0 | 0 | 100

— patent US8158809B2 (priority 2003, dated 2012)
